This is an account of results in patent US8722714B2, “Oxazolidine derivatives as NMDA antagonists” (The Honk Kong University of Science and Technology, priority 2008, dated 2014).

Series [1] concerns scopolamine-induced memory deficit mice. The experiment in a line: Morris Water Maze in scopolamine-induced memory deficit mice. It counts as in vivo. To be noted: scopolamine 4 mg/kg i.p. How it is done: 6-8 week old outbred male I.C.R. mice, weighing 25-35g were housed two per cage in a climatically controlled animal room (23-25° C.) under 12 hours light/dark cycling. The animals were allowed access to water and food ad lib. The mice used for the experiment were brought to particular laboratory conditions for two days. All the experiments were conducted between 14:00 and 18:00. Scopolamine hydrobromide (Sigma, USA) was dissolved in saline in 4 mg/kg and administered in a volume of 10 ml/kg body weight. The experimental mice were randomly assigned into 3 groups, each consisting of 12 mice with similar mean body weights and age. Test sample was dissolved in physiological saline before the experiments each day. Scopolamine was administered through intraperitoneal injection (i.p.) at 30 minutes before the swimming tasks to induce memory deficit. Oral administrations (p.o.) of the test compound, or saline (0.9%) was started at the first day of the task and administrated according to a volume of 10 ml/kg body weight. Oral drug administrations were 45 minutes before the swimming tasks and conducted daily for 4 consecutive days until the end of the task.
Each mouse was subjected to 4 trials per day for 4 consecutive days. […] The student t-test with repeated measures was used to analyze latency values, and calculated as the mean latency periods for each mouse. Data are expressed as means±S.E.M, *=P<0.05 and **=P<0.005 versus scopolamine.
Scopolamine (SCOP; 4 mg/kg) was first administered intra-peritoneally to mice to impair their memories. […] On each day, the time taken for the mice to detect the hidden platform in the water maze was measured, in seconds. Measurements were calculated as the mean latency periods for each mouse; n=24. Data are expressed as mean±s.e.m. and compared to Saline/SCOP group. […]
In FIG. 13, mice were first orally administered LC-24 (30 mg/kg), scopolamine (4 mg/kg) was i.p. administered to mice 15 min to impair their memories. […] On each day, the time taken for the mice to detect the hidden platform in the water maze was measured, in seconds. […]

In series [2] the test system is rat primary cortical neurons. Description: Neuron survival assay against NMDA insult (LDH release). In kind it is cell-based. To be noted: NMDA 20 μM; for protection of rat primary cortical neurons from NMDA insults (LDH release, fold change vs DMSO): compounds 10-30 μg/ml, 11 DIV; for cell death (LDH release, cell cytotoxicity vs DMSO): compound 10 μg/mL, DIV 11. How it is done: Primary cortical and hippocampal neurons were prepared from embryonic day 18 (E18) Sprague-Dawley rats. Neurons were plated on 24-well plate (TPP, Corning) at a density of 2×10^5 cells per well using Neurobasal medium (Invitrogen) supplemented with 2% B27 (Invitrogen). Neurons at 11-12 days in vitro (12 DIV) were subjected to drug treatment. Neurons were pretreated with the test compound for 2 hours prior to NMDA treatment. 0.1 μM (+)-MK-801 Hydrogen Maleate (Sigma) was added as a positive control. Briefly, the neurons were rinsed with Locke's solution (5 mM potassium chloride, 128 mM sodium chloride, 2.7 mM calcium chloride, 1 mM di-sodium hydrogen orthophosphate, 5 mM HEPES and 10 mM glucose in Milli-Q water) without Mg^2+, and incubated with addition of glycine (10 μM) for 15 minutes. After the incubation, the neurons were co-treated with the test compound (dissolved in Locke's plus glycine solution) and NMDA (20 μM; Sigma) for 20 minutes. Neurons were rinsed with Locke's plus Mg^2+ and replaced with fresh growth medium. The cell death was assayed and quantified using the lactate dehydrogenase release assay (Roche) after 24 hours.
Embryonic rat cortical neurons (11 DIV) were treated with NMDA (20 μM) in the absence or presence of the LC series of compounds (10-30 μg/ml). […] LDH release in the medium after overnight incubation was measured and fold change was calculated when compared to the solvent control, DMSO.
Embryonic rat cortical neurons (DIV 11) were treated with NMDA (20 μM) in the absence or presence of LC-01 or LC-02 (μg/mL). LDH release in the medium after overnight incubation was measured and cell cytotoxicity was calculated in percentage when compared to the solvent control, DMSO.
Embryonic rat cortical neurons (DIV 11) were treated with NMDA (20 μM) in the absence or presence of LC-06 (μg/mL). LDH release in the medium after overnight incubation was measured and cell cytotoxicity was calculated in percentage when compared to the solvent control, DMSO.
Embryonic rat cortical neurons (11 DIV) were treated with NMDA (20 μM) in the absence or presence of LC-24 or LC-25 (μg/mL). LDH release in the medium after overnight incubation was measured and cell cytotoxicity was calculated in percentage when compared to solvent control (DMSO).
On the technique in general: Release of lactate dehydrogenase indicates damage to the cell membrane.

Regarding `CC[C@H]1N[C@@H](CC(C)C)C(CC)(CC)O1` [LC-02], the escape latency result in series [1] (30 or 100 mg/kg oral) is listed as “decreases escape latencies”. In series [2], the “protection of rat primary cortical neurons from NMDA insults (LDH release, fold change vs DMSO)” value (“protection … (LDH release, fold change vs DMSO)” for short) was “significantly protected” and the “cell death (LDH release, cell cytotoxicity vs DMSO)” value was “cell death was markedly reduced”.
On to `CCCC1(CCC)O[C@@H](CC)N[C@H]1CC(C)C` [LC-06], for which the escape latency result in series [1] (100 mg/kg oral, 4 days) is listed as “reversed the increased escape latency induced by scopolamine”. In series [2], the “protection … (LDH release, fold change vs DMSO)” value is on record as “significantly protected” and the “cell death (LDH release, cell cytotoxicity vs DMSO)” value is “cell death was markedly reduced”.
`CC[C@H]1N[C@@H](Cc2ccccc2)C(CC)(CC)O1` [LC-24]: the escape latency result in series [1] (30 mg/kg oral, 4 days) is “reduced the increased escape latency induced by scopolamine”. In addition, in series [2], the “protection … (LDH release, fold change vs DMSO)” value was “significantly protected” and the “cell death (LDH release, cell cytotoxicity vs DMSO)” value was “cell death was markedly reduced”.
